This passage reports IC50 results from patent US10377770B2 (Novartis AG, priority 2015, dated 2019).

The test has as its target C-Raf FL (full length CRAF with Y340E and Y341E activating mutations, co-expressed with h14-3-3 zeta) (Homo sapiens (Human), UniProt P04049, Y340E/Y341E). The experiment in a line: In vitro Raf activity determination, AlphaScreen p-MEK readout, c-Raf (C-Raf FL). The test is classed as biochemical. Conditions: c-Raf approximately 4 nM, ATP 1 μM, pre-incubation 60 minutes, reaction 1 hour. The text has this: Sf9 cells co-expressing both proteins were lysed and subjected to immobilized nickel chromatography and eluted with Imidazole. A second column (StrepII binding column) was used and eluted with desthiobiotin. Protein Tags were removed using Prescission enzyme and the protein was further purified using a flowthrough step to remove tags.
C-Raf TR refers to a truncated C-Raf protein, a Δ1-324 deletion mutant. C-Raf FL refers to the full-length C-Raf protein.
Full length MEK1 with an inactivating K97R ATP binding site mutation is utilized as a RAF substrate. The MEK1 cDNA was subcloned with an N-terminal (his)6 tag into a vector for E. Coli expression. The MEK1 substrate was purified from E. Coli lysate by nickel affinity chromatography followed by anion exchange. The final MEK1 preparation was biotinylated (Pierce EZ-Link Sulfo-NHS-LC-Biotin) and concentrated.
Assay Materials: Assay buffer is 50 mM Tris, pH 7.5, 15 mM MgCl2, 0.01% Bovine Serum Albumin (BSA) and 1 mM dithiothreitol (DTT); Stop buffer is 60 mM ethylenediaminetetraacetic acid (EDTA) and 0.01% Tween® 20; b-Raf (V600E), active; biotinylated Mek, kinase dead; Alpha Screen detection kit (available from PerkinElmer™, #6760617R); Anti phospho-MEK1/2 (available from Cell Signaling Technology, Inc. #9121); 384 well low volume assay plates (White Greiner® plates).
Assay conditions: b-Raf (V600E) approximately 4 pM; c-Raf approximately 4 nM; biotinylated Mek, kinase dead approximately 10 nM; ATP 10 μM for BRAF (V600E) and 1 μM for CRAF; Pre-incubation time with compounds 60 minutes at room temperature; Reaction time 1 or 3 hours at room temperature.
Assay protocol: Raf and biotinylated Mek (kinase dead) were combined at 2× final concentrations in assay buffer (50 mM Tris, pH 7.5, 15 mM MgCl2, 0.01% BSA and 1 mM DTT) and dispensed […] per well in assay plates (Greiner white 384 well assay plates #781207) containing […] of 40× of a Raf kinase inhibitor test compound diluted in 100% DMSO. The plate was incubated for 60 minutes at room temperature. The Raf kinase activity reaction was started by the addition of […] per well of 2×ATP diluted in assay buffer. After 3 hours (b-Raf(V600E)) or 1 hour (c-Raf). The reactions were stopped and the phosphorylated product was measured using a rabbit anti-p-MEK (Cell Signaling, #9121) antibody and the Alpha Screen IgG (ProteinA) detection Kit (PerkinElmer #6760617R), by the addition of […] to the well of a mixture of the antibody (1:2000 dilution) and detection beads (1:2000 dilution of both beads) in Stop/bead buffer (25 mM EDTA, 50 mM Tris, pH 7.5, 0.01% Tween20). The additions were carried out under dark conditions to protect the detection beads from light. A lid was placed on top of the plate and incubated for 1 hour at room temperature, after which the luminescence was read on a PerkinElmer Envision instrument.

C-Raf FL (full length CRAF with Y340E and Y341E activating mutations, co-expressed with h14-3-3 zeta), sequence (P04049 whole entry Y340E/Y341E, the tested form may be a part): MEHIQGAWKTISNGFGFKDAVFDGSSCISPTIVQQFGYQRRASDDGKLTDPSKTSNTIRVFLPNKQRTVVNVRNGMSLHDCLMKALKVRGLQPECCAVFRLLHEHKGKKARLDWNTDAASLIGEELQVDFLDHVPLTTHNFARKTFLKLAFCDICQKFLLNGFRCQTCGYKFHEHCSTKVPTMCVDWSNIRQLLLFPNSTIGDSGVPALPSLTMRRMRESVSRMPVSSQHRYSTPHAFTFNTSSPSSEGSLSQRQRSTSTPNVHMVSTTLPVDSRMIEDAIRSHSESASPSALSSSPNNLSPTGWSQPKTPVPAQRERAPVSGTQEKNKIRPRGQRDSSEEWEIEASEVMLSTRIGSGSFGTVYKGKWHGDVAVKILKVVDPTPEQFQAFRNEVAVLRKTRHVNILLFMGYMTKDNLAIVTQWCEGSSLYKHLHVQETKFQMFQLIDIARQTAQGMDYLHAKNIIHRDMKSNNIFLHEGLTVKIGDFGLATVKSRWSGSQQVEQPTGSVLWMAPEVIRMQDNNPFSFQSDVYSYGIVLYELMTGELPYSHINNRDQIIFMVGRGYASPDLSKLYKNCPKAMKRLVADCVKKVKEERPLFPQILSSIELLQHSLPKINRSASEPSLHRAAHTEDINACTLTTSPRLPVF
C-Raf FL (full length CRAF with Y340E and Y341E activating mutations, co-expressed with h14-3-3 zeta), sequence (P63104 whole entry partner, the tested form may be a part): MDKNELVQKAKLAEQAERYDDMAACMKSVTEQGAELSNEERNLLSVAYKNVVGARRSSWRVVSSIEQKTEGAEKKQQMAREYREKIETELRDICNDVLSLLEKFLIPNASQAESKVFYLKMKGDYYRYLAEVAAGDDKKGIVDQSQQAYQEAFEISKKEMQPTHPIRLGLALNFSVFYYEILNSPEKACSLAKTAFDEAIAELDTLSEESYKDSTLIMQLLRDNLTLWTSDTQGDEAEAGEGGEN

With `Cc1ccc(NC(=O)c2ccnc(C(C)(F)F)c2)cc1-c1ccc2c(c1)N1CCOC[C@@H]1[C@](F)(CO)C2` [Example 372, 2-(1,1-difluoroethyl)-N-(3-((4aR,5S)-5-fluoro-5-(hydroxymethyl)-1,2,4,4a,5,6-hexahydro-[1,4]oxazino[4,3-a]quinolin-9-yl)-4-methylphenyl)isonicotinamide], the IC50 was 0.3 nM.
In turn, `Cc1ccc(NC(=O)c2ccnc(C(C)(F)F)c2)cc1-c1ccc2c(c1)N1CCOC[C@]1(C)C[C@H]2O` (racemic) [Example 27] registered an IC50 of 0.017 nM.
As for `Cc1ccc(NC(=O)c2ccnc(C(C)(F)F)c2)cc1-c1cnc2c(c1)C1CCOCC1OC(=O)N2CCO` (stereo not drawn) [Example 332, 2-(1,1-difluoroethyl)-N-(3-((4,11b-cis)-7-(2-hydroxyethyl)-6-oxo-2,4,4a,6,7,11b-hexahydro-1H-pyrano[4,3-f]pyrido[2,3-d][1,3]oxazepin-10-yl)-4-methylphenyl) isonicotinamide], the figure is 2.1 nM.
With `CCN1C(=O)C[C@@H]2COCCN2c2cc(-c3cc(NC(=O)c4ccnc(C(C)(F)F)c4)ccc3C)cnc21` [Example 126, (R)-2-(1,1-Difluoroethyl)-N-(3-(7-ethyl-6-oxo-1,2,4a,5,6,7-hexahydro-4H-[1,4]oxazino[4,3-d]pyrido[2,3-b][1,4]diazepin-10-yl)-4-methylphenyl)isonicotinamide] the figure was 0.016 nM; with `Cc1ccc(NC(=O)c2ccnc(C(F)(F)F)c2)cc1-c1cnc2c(c1)N1CCOCC1C(C)(C)C2O` (stereo not shown) [Example 335, N-(3-(6-hydroxy-5,5-dimethyl-1,2,4,4a,5,6-hexahydro-[1.4]oxazino[4,3-a][1.5]naphthyridin-9-yl)-4-methylphenyl)-2-(trifluoromethyl) isonicotinamide], 0.1 nM.
As for `CCN1C[C@H]2CCOCCN2c2cc(-c3cc(NC(=O)c4ccnc(C(F)(F)F)c4)ccc3C)cnc2C1=O` [Example 505, (R)-N-(3-(7-ethyl-8-oxo-1,2,4,5,5a,6,7,8-octahydropyrido[2′, 3′:6,7][1,4]diazepino [1,2-d][1,4]oxazepin-11-yl)-4-methylphenyl)-2-(trifluoromethyl)iso-nicotinamide], the figure is 3.6 nM; as for `Cc1ncc(NC(=O)c2ccnc(C(C)(F)F)c2)cc1-c1ccc2c(c1)N1CCOC[C@H]1[C@](C)(C#N)C2` (racemic) [Example 87, (rac)-N-(5-(5-cyano-5-methyl-1,2,4,4a,5,6-hexahydro-[1,4]oxazino[4,3-a]quinolin-9-yl)-6-methylpyridin-3-yl)-2-(1,1-difluoroethyl)isonicotinamide], 0.022 nM; as for `Cc1ncc(NC(=O)c2cccc(C(F)(F)F)c2)cc1-c1cnc2c(c1)N1CCOC[C@H]1C[C@@H]2O` (racemic) [Example 104, rac-cis-N-(5-(6-Hydroxy-1,2,4,4a,5,6-hexahydro-[1,4]oxazino[4,3-a][1,5]naphthyridin-9-yl)-6-methylpyridin-3-yl)-3-(trifluoromethyl)benzamide], 0.044 nM.
`Cc1ccc(NC(=O)c2ccnc(C(C)(F)F)c2)cc1-c1ccc2c(c1)N1CCOC[C@]1(C)C[C@@H]2O` (relative stereo) [Example 26] came in with a concentration for half-maximal inhibition (IC50) of 0.014 nM.
With `Cc1ccc(NC(=O)c2cnnc(C(F)(F)F)c2)cc1-c1cc(F)c2c(c1)N1CCOC[C@@H]1[C@](F)(CO)C2` [Example 439, N-(3-((4aR,5S)-5,7-difluoro-5-(hydroxymethyl)-1,2,4,4a,5,6-hexahydro-[1,4]oxazino[4,3-a]quinolin-9-yl)-4-methylphenyl)-6-(trifluoromethyl) pyridazine-4-carboxamide] the figure was 0.1 nM.
As for `Cc1ccc(NC(=O)c2ccnc(C(C)(F)F)c2)cc1-c1ccc2c(c1)N1CCOCC1CC2(C)O` (racemic) [Example 23], the figure is 0.046 nM; as for `Cc1ccc(NC(=O)c2ccnc(C(C)(F)F)c2)cc1-c1ccc2c(c1)N1CCOCC1C(F)(CO)C2` (single isomer, unassigned) [Example 82, 2-(1,1-difluoroethyl)-N-(3-(5-fluoro-5-(hydroxymethyl)-1,2,4,4a,5,6-hexahydro-[1,4]oxazino[4,3-a]quinolin-9-yl)-4-methylphenyl)isonicotinamide], 0.17 nM; as for `Cc1ncc(NC(=O)c2ccnc(C(C)(F)F)c2)cc1-c1cnc2c(c1)N1CCOC[C@H]1C[C@@H]2O` (racemic) [Example 148, rac-cis-2-(1,1-difluoroethyl)-N-(5-(6-hydroxy-1,2,4,4a,5,6-hexahydro-[1,4]oxazino[4,3-a][1,5]naphthyridin-9-yl)-6-methylpyridin-3-yl)isonicotinamide], 0.046 nM.
With `Cc1ccc(NC(=O)c2ccnc(C(C)(F)F)c2)cc1-c1cnc2c(c1)N1CCOC[C@@H]1C(F)(F)[C@@H]2O` [Example 165, N-(3-((4aR,6R)-5,5-difluoro-6-hydroxy-1,2,4,4a,5,6-hexahydro-[1,4]oxazino[4,3-a][1,5]naphthyridin-9-yl)-4-methylphenyl)-2-(1,1-difluoroethyl)isonicotinamide] the figure was 0.62 nM; with `CCN1C(=O)OC2COCCC2c2cc(-c3cc(NC(=O)c4cccc(C(F)(F)F)c4F)cnc3C)cnc21` [Example 300, N-(5-((4aS,11bR- cis)-7-ethyl-6-oxo-2,4,4a,6,7,11b-hexahydro-1H-pyrano[4,3-f]pyrido[2,3-d][1,3]oxazepin-10-yl)-6-methylpyridin-3-yl)-2-fluoro-3-(trifluoromethyl) benzamide], 0.2 nM; with `CCN1C(=O)OC2COCCC2c2cc(-c3cc(NC(=O)c4ccnc(C(F)(F)F)c4)ccc3C)cnc21` [Example 297, N-(3-((4aS,11bR- cis)7-ethyl-6-oxo-2,4,4a,6,7,11b-hexahydro-1H-pyrano[4,3-f]pyrido[2,3-d][1,3]oxazepin-10-yl)-4-methylphenyl)-2-(trifluoromethyl) isonicotinamide], 0.2 nM.
For `Cc1ccc(NC(=O)c2ccnc(C(C)(C)F)c2)cc1-c1cnc2c(c1)N1CCOC[C@@H]1C[C@@H]2O` [Example 143, 2-(2-fluoropropan-2-yl)-N-(3-((4aS,6S)-6-hydroxy-1,2,4,4a,5,6-hexahydro-[1,4]oxazino[4,3 a][1,5]naphthyridin 9-yl)-4-methylphenyl)isonicotinamide], half-maximal inhibition (IC50) was put at 0.0088 nM.
With `Cc1ncc(NC(=O)c2cccc(C(F)(F)F)c2)cc1-c1cnc2c(c1)N1CCOC[C@@H]1[C@@H](C(C)(C)O)C2` [Example 455, N-(5-((4aS,5S)-5-(2-hydroxypropan-2-yl)-1,2,4,4a,5,6-hexahydro-[1,4]oxazino[4,3-a][l,5]naphthyridin-9-yl)-6-methylpyridin-3-yl)-3-(trifluoro-methyl)benzamide] the figure was 1.3 nM; with `Cc1ccc(NC(=O)c2ccnc(C(C)(C)F)c2)cc1-c1ccc2c(c1)N1CCOC[C@H]1[C@](F)(CO)C2` [Example 386, N-(3-((4aS,5S)-5-fluoro-5-(hydroxymethyl)-1,2,4,4a,5,6-hexahydro-[1,4]oxazino[4,3-a]quinolin-9-yl)-4-methylphenyl)-2-(2-fluoropropan-2-yl)isonicotinamide], 0.3 nM.
As for `CCN1C(=O)C(C)(C)c2nncn2-c2cc(-c3cc(NC(=O)c4ccnc(C(F)(F)F)c4)ccc3C)cnc21` [Example 239, N-(3-(6-ethyl-4,4-dimethyl-5-oxo-5,6-dihydro-4H-pyrido[2,3-b][1,2,4]-triazolo[4,3-d][1,4]diazepin-9-yl)-4 methylphenyl)-2-(trifluoromethyl) isonicotinamide], the figure is 4.7 nM; as for `CCN1C(=O)O[C@H]2COCC[C@@H]2c2cc(-c3cc(NC(=O)c4ccnc(C(F)(F)F)c4)ccc3C)cnc21` [Example 305, N-(3-((4aR,11bR)-7-ethyl-6-oxo-2,4,4a,6,7,11b-hexahydro-1H-pyrano[4,3-f]pyrido[2,3-d][1,3]oxazepin-10-yl)-4-methylphenyl)-2-(trifluoromethyl) isonicotinamide], 0.3 nM.
With `Cc1ccc(NC(=O)c2ccnc(C(C)(F)F)c2)cc1-c1ccc2c(c1)N1CCOC[C@H]1[C@](F)(CF)C2` [Example 473] the figure was 1.5 nM.
